The values that follow come from US7109186B2 (Bristol-Myers Squibb Company, priority 2002, dated 2006).

This test concerns the target T1, HIV-integrase (Human immunodeficiency virus type 1 group M subtype B, UniProt P04585).
T1 construct: 0.26 ng of recombinant integrase was incubated with the beads for 90 min at 37 C
Briefly: HIV integrase SPA integration assay (biotin-labeled substrate DNA on streptavidin SPA beads, P33-labeled target DNA). Particulars: percent inhibition of HIV-integrase in the presence of 20 μM of compound. The class given is biochemical. The protocol: For each reaction, 5 pmole of biotin labeled substrate DNA was bound to 100 ug of Streptavidin coated PVT SPA beads (Amersham Pharmacia Biotech). 0.26 ng of recombinant integrase was incubated with the beads for 90 min at 37 C. Unbound enzyme was removed by washing the complex followed by addition of inhibitors and 0.1 fmol of P33 labeled target DNA. Reaction was stopped by adding EDTA to a final concentration of 10 mM. Samples were counted in TopCountNXT (Packard) and the CPM was used as a measure of integration. Reaction condition was as described in A. Engelman and R. Craigie, J. Virol. 69, 5908–5911 (1995). The sequences of substrate and target DNA were described in Nucleic Acid Research 22, 1121–1122 (1994).

The structures appear in SMILES notation.

What is called inhibition is the share of the control response that was lost under treatment. On to `CN1CC(C(=O)N(C)Cc2ccc(F)cc2)=C(O)C1=O` [Compound 1, 4-Hydroxy-1-methyl-5-oxo-2,5-dihydro-1H-pyrrole-3-carboxylic acid (4-fluoro-benzyl)-methyl amide], for which the inhibition at 20 µM was 99.9%.

For the molecule `CN(Cc1ccc(F)cc1)C(=O)C1=C(O)C(=O)N(CCc2ccc(Cl)cc2)C1` [Compound 2, 1-[2-(4-Chloro-phenyl)ethyl]-4-hydroxy-5-oxo-2,5-dihydro-1H-pyrrole-3-carboxylic acid (4-fluoro-benzyl)-methyl amide], the inhibition at 20 µM came out at 99.9%.

As to `CN(Cc1ccc(F)cc1)C(=O)C1=C(O)C(=O)N(CCc2ccccc2Cl)C1` [Compound 3, 1-[2-(Chloro-phenyl)-ethyl]-4-hydroxy-5-oxo-2,5-dihydro-1H-pyrrole-3-carboxylic acid (4-fluoro-benzyl)-methyl amide], the inhibition at 20 µM came out at 99.9%.

As to `CN(Cc1ccc(F)cc1)C(=O)C1=C(O)C(=O)N(CCc2cccs2)C1` [Compound 4, 4-Hydroxy-5-oxo-1-(2-thiophen-2-yl-ethyl)-2,5-dihydro-1H-pyrrole-3-carboxylic acid (4-fluoro-benzyl)-methyl-amide], the inhibition at 20 µM is 99.9%.

Take `CN(Cc1ccc(F)cc1)C(=O)C1=C(O)C(=O)N(CCc2ccccc2F)C1` [Compound 5, 1-[2-(2-Fluoro-phenyl)-ethyl]-4-hydroxy-5-oxo-2,5-dihydro-1H-pyrrole-3-carboxylic acid (4-fluoro-benzyl)-methyl-amide]: the inhibition at 20 µM was 99.8%.

Regarding `CN(Cc1ccc(F)cc1)C(=O)C1=C(O)C(=O)N(CCc2ccc(Cl)cc2Cl)C1` [Compound 6, 1-[2-(2,4-Dichloro-phenyl)-ethyl]-4-hydroxy-5-oxo-2,5-dihydro-1H-pyrrole-3-carboxylic acid (4-fluoro-benzyl)-methyl-amide], the inhibition at 20 µM was 99.9%.

`CN(Cc1ccc(F)cc1)C(=O)C1=C(O)C(=O)N(CCc2ccncc2)C1` [Compound 7, 4-Hydroxy-5-oxo-1-(2-pyridin-4-yl-ethyl)-2,5-dihydro-1H-pyrrole-3-carboxylic acid (4-fluoro-benzyl)-methyl-amide]: the inhibition at 20 µM came to 99.9%.

Regarding `CN(Cc1ccc(F)cc1)C(=O)C1=C(O)C(=O)N(CCc2ccccc2)C1` [Compound 8, 4-Hydroxy-5-oxo-1-phenethyl-2,5-dihydro-1H-pyrrole-3-carboxylic acid (4-fluoro-benzyl)-methyl-amide], the inhibition at 20 µM is 99.9%.

As to `CN(Cc1ccc(F)cc1)C(=O)C1=C(O)C(=O)N(CCc2ccc(F)cc2)C1` [Compound 9, 1-[2-(4-Fluoro-phenyl)-ethyl]-4-hydroxy-5-oxo-2,5-dihydro-1H-pyrrole-3-carboxylic acid (4-fluoro-benzyl)-methyl amide], the inhibition at 20 µM worked out at 99.9%.

`CN(Cc1ccc(F)cc1)C(=O)C1=C(O)C(=O)N(CCCc2ccccc2)C1` [Compound 10, 4-Hydroxy-5-oxo-1-(3-phenyl-propyl)-2,5-dihydro-1H-pyrrole-3-carboxylic acid (4-fluoro-benzyl)-methyl-amide]: the inhibition at 20 µM came out at 99.9%.

For `CC(C)N1CC(C(=O)N(C)Cc2ccc(F)cc2)=C(O)C1=O` [Compound 11, 4-Hydroxy-1-isopropyl-5-oxo-2,5-dihydro-1H-pyrrole-3-carboxylic acid (4-fluoro-benzyl)-methyl-amide], the inhibition at 20 µM came to 99.9%.

With `CN1CC(C(=O)N(C)Cc2ccc(Cl)c(Cl)c2)=C(O)C1=O` [Compound 12, 4-Hydroxy-1-methyl-5-oxo-2,5-dihydro-1H-pyrrole-3-carboxylic acid (3,4-dichloro-benzyl)-methyl amide], the inhibition at 20 µM amounted to 99.9%.

As for `CN(Cc1ccc(Cl)c(Cl)c1)C(=O)C1=C(O)C(=O)N(CCN2CCOCC2)C1` [Compound 13, 4-Hydroxy-1-(2-morpholin-4-yl-ethyl)-5-oxo-2,5-dihydro-1H-pyrrole-3-carboxylic acid (3,4-dichloro-benzyl)-methyl-amide], the inhibition at 20 µM worked out at 99.9%.

As for `CNCCN1CC(C(=O)N(C)Cc2ccc(Cl)c(Cl)c2)=C(O)C1=O` [Compound 15, 4-Hydroxy-1-(2-methylamino-ethyl)-5-oxo-2,5-dihydro-1H-pyrrole-3-carboxylic acid (3,4-dichloro-benzyl)-methyl-amide], the inhibition at 20 µM stood at 99.7%.

Consider `CN(Cc1ccc(Cl)c(Cl)c1)C(=O)C1=C(O)C(=O)N(CC(C)(C)C)C1` [Compound 16, 1-(2,2-Dimethyl-propyl)-4-hydroxy-5-oxo-2,5-dihydro-1H-pyrrole-3-carboxylic acid (3,4-dichloro-benzyl)-methyl-amide], for which the inhibition at 20 µM came out at 99.9%.

For the molecule `CN(Cc1ccc(Cl)c(Cl)c1)C(=O)C1=C(O)C(=O)N(CCc2ccc(S(N)(=O)=O)cc2)C1` [Compound 17, 4-Hydroxy-5-oxo-1-[2-(4-sulfamoyl-phenyl)-ethyl]-2,5-dihydro-1H-pyrrole-3-carboxylic acid (3,4-dichloro-benzyl)-methyl-amide], the inhibition at 20 µM is 99.9%.

Regarding `CN(Cc1ccc(Cl)c(Cl)c1)C(=O)C1=C(O)C(=O)N(Cc2ccc(Cl)c(Cl)c2)C1` [Compound 19, 1-(3,4-Dichloro-benzyl)-4-hydroxy-5-oxo-2,5-dihydro-1H-pyrrole-3-carboxylic acid (3,4-dichloro-benzyl)-methyl-amide], the inhibition at 20 µM was 99.9%.

As to `CN(Cc1ccc(Cl)c(Cl)c1)C(=O)C1=C(O)C(=O)N(Cc2ccncc2)C1` [Compound 21], the inhibition at 20 µM was determined as 99.9%.

Take `CCN1CCCC1CN1CC(C(=O)N(C)Cc2ccc(Cl)c(Cl)c2)=C(O)C1=O` (stereo not drawn) [Compound 22, 1-(1-Ethyl-pyrrolidin-2-ylmethyl)-4-hydroxy-5-oxo-2,5-dihydro-3-carboxylic acid (3,4-dichloro-benzyl)-methyl-amide]: the inhibition at 20 µM is 99.9%.

With `CN(Cc1ccc(Cl)c(Cl)c1)C(=O)C1=C(O)C(=O)N(CCP(=O)(O)O)C1` [Compound 23, (2-{4-[(3,4-Dichloro-benzyl)-methyl-carbamoyl]-3-hydroxy-2-oxo-2,5-dihydro-pyrrol-1-yl}-ethyl)-phosphonic acid], the inhibition at 20 µM was 99.9%.

Turning to `CCOP(=O)(CCN1CC(C(=O)N(C)Cc2ccc(Cl)c(Cl)c2)=C(O)C1=O)OCC` [Compound 23-A, (2-[4-[(3,4-Dichloro-benzyl)-methyl-carbamoyl]-3-hydroxy-2-oxo-2,5-dihydro-pyrrol-1-yl]-ethyl)-phosphonic acid diethyl ester], the inhibition at 20 µM was found to be 99.9%.

On to `CN(Cc1ccc(Cl)c(Cl)c1)C(=O)C1=C(O)C(=O)N(CCCC(=O)O)C1` [Compound 24, 4-{4-[(3,4-Dichloro-benzyl)-methyl-carbamoyl]-3-hydroxy-2-oxo-2,5-dihydro-pyrrol-1-yl}-butyric acid], for which the inhibition at 20 µM turned out to be 99.9%.

In the case of `CN(Cc1ccc(Cl)c(Cl)c1)C(=O)C1=C(O)C(=O)N(C(CC(N)=O)C(=O)O)C1` (stereo not drawn) [Compound 25, 2-{4-[(3,4-Dichloro-benzyl)-methyl-carbamoyl]-3-hydroxy-2-oxo-2,5-dihydro-pyrrol-1-yl}-succinamic acid], the inhibition at 20 µM was found to be 99.9%.

For the molecule `CN(Cc1ccc(Cl)c(Cl)c1)C(=O)C1=C(O)C(=O)N(CCN2CCCCC2)C1` [Compound 26, 4-Hydroxy-5-oxo-1-(2-piperidin-1-yl-ethyl)-2,5-dihydro-1H-pyrrole-3-carboxylic acid (3,4-dichloro-benzyl)-methyl-amide], the inhibition at 20 µM worked out at 99.9%.
